Key:
[1] = system: lymph node resident DC subsets; experiment: Uptake of fluorescently labeled OVA by lymph node DC subsets after i.d. injection; type: in vivo, mice; settings: 12 h
Procedure: Mice were treated with an intradermal injection of fluorescently labeled OVA or fluorescently labeled OVA conjugated to either p(Man) or p(Man-TLR). After 12 h, the lymph nodes of the animals were harvested and the cells of the lymph nodes were analyzed for fluorescently labeled OVA content via flow cytometry. Conjugation of OVA to p(Man-TLR) increases the uptake of OVA by CD8+ cross-presenting DCs (a.), CD4+ activating DCs (b.), CD4−/CD8− lymph node resident DCs (c.), and conventional dermal DCs (d.).
It is contemplated that conjugating p(Man-TLR) to antigens will improve their uptake by DCs and increased DC activation. […] After 12 h, the lymph node resident DC subsets of these animals were analyzed for fOVA.

[2] = system: bone marrow derived dendritic cells (BMDCs); experiment: Viability / toxicity in treated BMDCs; type: cell-based; settings: 10 μM
Text: Given that DCs are the primary target for the polymer-conjugates, Applicants treated bone marrow derived dendritic cells (BMDCs) with various concentrations of TLR7-MA, p(man-TLR), or the synthetic oligonucleotide CpG, a powerful TLR-9 agonist.

TLR7 = molecular target: T1, TLR7 (Homo sapiens, UniProt Q9NYK1); experiment: HEK-Blue TLR7-activation reporter cell assay; settings: media with 2.0 μM agonist (polymer: 2.0 μM of TLR7-MA in polymeric form), 12 h
T1 sequence (Q9NYK1 27-1049): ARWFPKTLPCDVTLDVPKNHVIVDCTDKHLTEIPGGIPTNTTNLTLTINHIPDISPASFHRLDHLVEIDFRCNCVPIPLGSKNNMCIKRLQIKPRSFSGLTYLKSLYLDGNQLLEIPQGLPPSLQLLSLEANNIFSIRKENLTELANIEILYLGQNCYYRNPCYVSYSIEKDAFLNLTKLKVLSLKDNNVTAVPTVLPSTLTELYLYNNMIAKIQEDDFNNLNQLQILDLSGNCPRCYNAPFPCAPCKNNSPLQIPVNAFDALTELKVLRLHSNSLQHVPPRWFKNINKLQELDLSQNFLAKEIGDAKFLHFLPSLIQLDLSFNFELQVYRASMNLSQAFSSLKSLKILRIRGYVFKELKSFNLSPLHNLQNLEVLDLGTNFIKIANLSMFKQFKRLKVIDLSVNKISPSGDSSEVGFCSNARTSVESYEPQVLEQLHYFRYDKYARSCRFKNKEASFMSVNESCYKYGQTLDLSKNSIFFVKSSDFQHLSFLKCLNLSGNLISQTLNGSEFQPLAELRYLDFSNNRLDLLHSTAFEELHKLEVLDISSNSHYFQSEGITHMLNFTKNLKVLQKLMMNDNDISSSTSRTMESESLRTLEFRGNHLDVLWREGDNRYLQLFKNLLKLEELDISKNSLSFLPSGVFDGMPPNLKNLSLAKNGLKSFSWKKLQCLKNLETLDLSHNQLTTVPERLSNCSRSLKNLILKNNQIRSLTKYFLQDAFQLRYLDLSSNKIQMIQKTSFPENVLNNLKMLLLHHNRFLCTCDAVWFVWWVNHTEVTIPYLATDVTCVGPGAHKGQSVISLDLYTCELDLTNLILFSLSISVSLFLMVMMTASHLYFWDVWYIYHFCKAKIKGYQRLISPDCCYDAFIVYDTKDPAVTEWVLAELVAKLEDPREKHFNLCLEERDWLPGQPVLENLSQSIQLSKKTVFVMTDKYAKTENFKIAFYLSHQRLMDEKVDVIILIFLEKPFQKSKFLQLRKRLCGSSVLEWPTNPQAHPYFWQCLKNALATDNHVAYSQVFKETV

CSP peptide stretches = experiment: Breadth of IgG response on arrays of peptides from the sequence of CSP; type: in vivo, mice
[3] = system: circumsporozite protein (CSP) from Plasmodium falciparum; experiment: Example 12: vaccination with malaria antigen CSP formulations, cellular and humoral response; type: in vivo, mice
Procedure: FIG. 17: To characterize the response to an actual vaccinal antigen, and to compare to an advanced clinical adjuvant, the inventors made the polymer conjugate formulation with the P. falciparum antigen CSP (the full-length protein).
FIG. 18: To characterize humoral responses to the CSP-p(Man-TLR) polymer conjugate formulation, Tfh cells were characterized in the spleen and IgG concentrations were measured in the blood.
The inventors benchmarked the performance of antigen-p(Man-TLR) conjugates against other vaccine adjuvant formulations that have been reported to produce effective immune responses, using a malaria antigen, specifically circumsporozite protein (CSP) from Plasmodium falciparum. Mice were treated on days 0 and 21 via intradermal injection into the 4 footpads with CSP-p(Man-TLR), CSP and MPLA/QS-21 liposomes (AS01E), CSP and the adjuvant R848, CSP and poly(I:C), or saline (Vehicle). AS01E is used in a clinical malaria vaccine formulation. All animals treated with formulations containing CSP received 10 μg of CSP. Animals treated with CSP-p(Man-TLR) received 20 μg TLR agonist in the polymeric form. Animals treated with AS01E received 2.5 μg of QS21. Animals treated with CSP and R848 were treated with 20 μg of R848. Animals treated with CSP and poly(I:C) received 15 μg poly(I:C). […] CSP-p(Man-TLR) induced a robust humoral response.

## fOVA-p(Man-TLR): fluorescently labeled Ovalbumin (fOVA) conjugated to p(Man-TLR)
[1]; FIG. 9A
  fOVA positive CD8+ cross presenting DCs vs fOVA: More than twice as many
[1]; FIG. 9B
  increase in number of CD4 activating DCs positive for fOVA vs fOVA: 3 fold
[1]; FIG. 9C-D
  targeting of double negative DCs and dermal conventional DCs vs free fOVA: able to target both double negative DCs and dermal conventional DCs
[1]; lymph node DCs
  OVA uptake by DCs vs fOVA: took up significantly more OVA

## C=C(C)C(=O)NCCOC(=O)NCc1ccc(Cn2c(COCC)nc3c(N)nc4ccccc4c32)cc1 [TLR7-MA, 2-methacrylamidoethyl 4-((4-amino-2-(ethoxymethyl)-1H-imidazo[4,5-c]quinolin-1-yl)methyl)benzylcarbamate]
[2]
  cell viability / toxicity: no significant decrease in viability
TLR7
  increase in TLR7 activation: 4 fold

B1: CSP-p(Man-TLR): P. falciparum circumsporozite protein (CSP, full-length) conjugated to p(Man-TLR) (conjugate, UniProt P02893 1-412, looked up)
chain: MMRKLAILSVSSFLFVEALFQEYQCYGSSSNTRVLNELNYDNAGTNLYNELEMNYYGKQENWYSLKKNSRSLGENDDGNNNNGDNGREGKDEDKRDGNNEDNEKLRKPKHKKLKQPGDGNPDPNANPNVDPNANPNVDPNANPNVDPNANPNANPNANPNANPNANPNANPNANPNANPNANPNANPNANPNANPNANPNANPNANPNVDPNANPNANPNANPNANPNANPNANPNANPNANPNANPNANPNANPNANPNANPNANPNANPNANPNANPNANPNANPNKNNQGNGQGHNMPNDPNRNVDENANANNAVKNNNNEEPSDKHIEQYLKKIKNSISTEWSPCSVTCGNGIQVRIKPGSANKPKDELDYENDIEKKICKMEKCSSVFNVVNSSIGLIMVLSFLFLN
modifications: full-length p(Man-TLR) polymer conjugate
CSP peptide stretches; FIG. 21
  highest value in the plot of antibody response to CSP regions: approx. 60000 units
CSP peptide stretches; antibodies binding to CSP peptide arrays
  breadth of IgG response: induced a broader and/or qualitatively distinct IgG response
[3]; days 0 and 21
  IFNγ+CD8+ cells in the lymph nodes vs CSP and R848 and CSP and AS01E: induced more IFNγ+CD8+ cells in the lymph nodes
  splenic T follicular helper cells and total IgG response in the blood vs other treatments: generated more splenic T follicular helper cells and a more robust total IgG response in the blood
[3]; intradermal, 4 footpads, days 0 and 21, 10 μg CSP, 20 μg TLR agonist
  IFNγ+ and TNFα+ CD4+ T cells in the spleen vs other therapies: induces more IFNγ+ and TNFα+ cCD4+ T cells in the spleen
